# Reference: patent US20210100777A1, “HEAT SHOCK PROTEIN (HSP) INHIBITION AND MONITORING EFFECTIVENESS THEREOF” (H. LEE MOFFITT CANCER CENTER AND RESEARCH INSTITUTE, INC., priority 2013, published 2021)
# Columns and labels:
# [1] = tested on: HSPs in 8226/LR5 cells; test: LC-MRM relative quantification of HSPs after 17-DMAG (Example 2); type: cell-based, human; conditions: for CDC37 Fold Change, LC-MRM / HS90A Fold Change, LC-MRM / HS90B Fold Change, LC-MRM / HSP7C Fold Change, LC-MRM / HSP7E Fold Change, LC-MRM / HSP71 Fold Change, LC-MRM / HSP74 Fold Change, LC-MRM / HSPA5 Fold Change, LC-MRM / HSP90α Fold Change, LC-MRM: 8226/LR5, 50 nM; for CDC37 Fold Change, LC-MRM / HS90A Fold Change, LC-MRM / HS90B Fold Change, LC-MRM / HSP7C Fold Change, LC-MRM / HSP7E Fold Change, LC-MRM / HSP71 Fold Change, LC-MRM / HSP74 Fold Change, LC-MRM / HSPA5 Fold Change, LC-MRM: 24 hrs after treatment vs. control; for HSP90α Fold Change, LC-MRM: 24 hrs vs. control
# Experimental: (§1) Cell Culture, Lysis, and HSP Sample Preparation for Mass Spectrometry. RPMI-8226 and 8226/LR5 cells were maintained as previously described (Bellamy et al., Cancer Res. 51:995-1002 (1991); Remily-Wood et al., Proteomics Clin. Appl. 5:383-96 (2011)). The heat shock protein 90 inhibitor, 17-desmethoxy-17-N,N-dimethylaminoethylamino-geldanamycin (17-DMAG), was dissolved in DMSO (100 μM stock). Based on prior IC50 measurements, the RPMI-8226 cells were treated with 100 nM 17-DMAG for 24 hours, and 8226/LR5 cells were treated with 50 nM 17-DMAG. Cells (n=10^6) were lysed using in aqueous 100 mM ammonium bicarbonate containing 8M urea for protein denaturation. Protein concentrations were measured by Bradford assays; consistent aliquots of total protein (380 ng) were injected for LC-MRM, and the same solutions were used for DI-MRM. Digestion, addition of SIS peptides, and mass spectrometry sample preparation were performed as described for standard proteins.
# (§2) […] Quantification. For HSP proteins in cell lysate, 184 transitions from 32 peptides (see Table 2) were monitored as previously described (Remily-Wood et al., Proteomics Clin. Appl. 5:383-96 (2011)). Both relative and absolute quantification were calculated from the sum of the peak areas for all detected transitions using Skyline (MacLean et al., Bioinformatics 26:966-8 (2010)) or the combination of MRMer (Martin et al., Mol. Cell Proteomics 7:2270-8 (2008)) and Post-MRMer (http://proteome.moffitt. org).
# [2] = tested on: HSPs in RPMI-8226 cells; test: as above; type: cell-based, human; conditions: for CDC37 Fold Change, LC-MRM / HS90A Fold Change, LC-MRM / HS90B Fold Change, LC-MRM / HSP7C Fold Change, LC-MRM / HSP7E Fold Change, LC-MRM / HSP71 Fold Change, LC-MRM / HSP74 Fold Change, LC-MRM / HSPA5 Fold Change, LC-MRM / HSP90α Fold Change, LC-MRM: RPMI-8226, 100 nM; for CDC37 Fold Change, LC-MRM / HS90A Fold Change, LC-MRM / HS90B Fold Change, LC-MRM / HSP7C Fold Change, LC-MRM / HSP7E Fold Change, LC-MRM / HSP71 Fold Change, LC-MRM / HSP74 Fold Change, LC-MRM / HSPA5 Fold Change, LC-MRM: 24 hrs after treatment vs. control; for HSP90α Fold Change, LC-MRM: 24 hrs vs. control
# Experimental: as §1, §2
# [3] = tested on: HSPs in 8226/LR5 cells; test: DI-MRM relative quantification of HSPs after 17-DMAG (Example 2); type: cell-based, human; conditions: for CDC37 Fold Change, DI-MRM / HS90A Fold Change, DI-MRM / HS90B Fold Change, DI-MRM / HSP7C Fold Change, DI-MRM / HSP7E Fold Change, DI-MRM / HSP71 Fold Change, DI-MRM / HSP74 Fold Change, DI-MRM / HSPA5 Fold Change, DI-MRM / HSP90α Fold Change, DI-MRM: 8226/LR5, 50 nM, 24 hrs vs. control
# Experimental: Synthesis and DI MRM of Standard Peptides. Standard peptides were synthesized and characterized as described previously (Remily-Wood et al., Proteomics Clin. Appl. 5:383-96 (2011)). An automated chip-based nanoelectrospray ion source, (NanoMate100, Advion BioSciences, Ithaca, N.Y.), was mounted on a triple quadrupole mass spectrometer (TSQ Vantage, Thermo, San Jose, Calif.). […] (SEQ ID NO:17) were diluted to 1 μM in 50% aqueous ACN with 0.1% formic acid. For synthetic peptide infusion, the spray voltage was tuned between 1.5 and 1.9 kV for stable ion signal. The gas pressure was set to 0.3 psi. Data were acquired at 20 ms per transition for 2 minutes using m/z 0.002 scan widths. The quadrupole resolution values were modulated from 0.2 to 0.7. […]
# as §1
# Calculation of Correction Factors to Account for Interference in DI MRM. […] To evaluate the ability to eliminate these contributions, correction factors were calculated based on LC-MRM data using the following set of equations (Equations 1 and 2): […]
# [4] = tested on: HSP70 isoform 1 (HSP71); test: LC-MRM pharmacodynamic assay of HSP90 inhibition in melanoma cell lines; type: cell-based; conditions: 300 nM, 0-48 hours; naïve, intrinsically resistant and acquired resistant cell lines
# Experimental: Proteomics Sample Preparation. Proteins were extracted as described for Western Blotting and processed as described in (Remily-Wood et al., Proteomics Clin. App. 5:383-96 (2011)).
# Liquid chromatography, multiple reaction monitoring mass (LC-MRM) spectrometry (LC MRM) analysis. LC-MRM was performed as described in (Remily-Wood et al., Proteomics Clin. App. 5:383-96 (2011)). Protein expression was determined using the ratio of peak area of the native peptide to corresponding internal standard; normalization of tissue results was performed using GAPDH to control for cellularity (Table 9). Data were then normalized to the pretreatment (cell lines) or vehicle controls (tissue) and plotted to show the changes in expression after drug treatment.
# [5] = tested on: chymotrypsin like proteasome activity in M229R and 1205LuR cells; test: Proteasome-Glo Chymotrypsin-Like Cell Based Assay; conditions: 300 nM, 48 hours
# Experimental: Measurement of proteasome activity. M229R and 1205LuR cells were harvested and plated at 7,500 cells per well in a white-walled 96 well plate. […] Proteasome activity was assessed using the Proteasome-Glo Chymotrypsin-Like Cell Based Assay (Promega; Madison, Wis.) and was measured in relative luminescence units (RLU).
# [6] = tested on: BIM, Mcl-1 and BMF mRNA in vemurafenib-resistant melanoma cell lines; test: Quantitative real-time PCR; conditions: 300 nM, 48 hours
# [7] = y3-y5 (DI-MRM Interference-Corrected)
# [8] = y3-y6 (DI-MRM Interference-Corrected)
# [9] = all LC-MRM transitions, interference-corrected
# [10] = noise corrected, only transitions below 40% interference
structure (smiles),measurement,setting,value
"CO[C@H]1/C=C\C=C(/C)C(=O)NC2=CC(=O)C(NCCN(C)C)=C(C[C@@H](C)C[C@H](OC)[C@H](O)[C@@H](C)/C=C(\C)[C@@H]1OC(N)=O)C2=O [17-DMAG, 17-Dimethylaminoethylamino-17-demethoxygeldanamycin]","CDC37 Fold Change, LC-MRM",[1]; Table 6,1.08
same,"HS90A Fold Change, LC-MRM",[1]; Table 6,1.23
same,"HS90B Fold Change, LC-MRM",[1]; Table 6,1.28
same,"HSP7C Fold Change, LC-MRM",[1]; Table 6,1.56
same,"HSP7E Fold Change, LC-MRM",[1]; Table 6,0.99
same,"HSP71 Fold Change, LC-MRM",[1]; Table 6,3.54
same,"HSP74 Fold Change, LC-MRM",[1]; Table 6,1.34
same,"HSPA5 Fold Change, LC-MRM",[1]; Table 6,1.53
same,"CDC37 Fold Change, LC-MRM",[1]; Table 7,1.08
same,"HS90A Fold Change, LC-MRM",[1]; Table 7,1.23
same,"HS90B Fold Change, LC-MRM",[1]; Table 7,1.28
same,"HSP7C Fold Change, LC-MRM",[1]; Table 7,1.56
same,"HSP7E Fold Change, LC-MRM",[1]; Table 7,0.99
same,"HSP71 Fold Change, LC-MRM",[1]; Table 7,3.54
same,"HSP74 Fold Change, LC-MRM",[1]; Table 7,1.34
same,"HSPA5 Fold Change, LC-MRM",[1]; Table 7,1.53
same,"HSP90α Fold Change, LC-MRM",[1]; y3 (Least Interference),1.26
same,"HSP90α Fold Change, LC-MRM",[1]; [7],1.23
same,"HSP90α Fold Change, LC-MRM",[1]; y3-y5 (Selected Transitions),1.23
same,"HSP90α Fold Change, LC-MRM",[1]; [8],1.23
same,"HSP90α expression increase, LC-MRM","[1]; 8226/LR5, 24 hours after treatment, same for y3-y6, y3-y5 or just y3",~1.2 fold
same,"CDC37 Fold Change, LC-MRM",[2]; Table 6,1.33
same,"HS90A Fold Change, LC-MRM",[2]; Table 6,2.21
same,"HS90B Fold Change, LC-MRM",[2]; Table 6,1.53
same,"HSP7C Fold Change, LC-MRM",[2]; Table 6,2.28
same,"HSP7E Fold Change, LC-MRM",[2]; Table 6,1.23
same,"HSP71 Fold Change, LC-MRM",[2]; Table 6,4.67
same,"HSP74 Fold Change, LC-MRM",[2]; Table 6,1.45
same,"HSPA5 Fold Change, LC-MRM",[2]; Table 6,2.66
same,"CDC37 Fold Change, LC-MRM",[2]; Table 7,1.33
same,"HS90A Fold Change, LC-MRM",[2]; Table 7,2.21
same,"HS90B Fold Change, LC-MRM",[2]; Table 7,1.53
same,"HSP7C Fold Change, LC-MRM",[2]; Table 7,2.28
same,"HSP7E Fold Change, LC-MRM",[2]; Table 7,1.23
same,"HSP71 Fold Change, LC-MRM",[2]; Table 7,4.67
same,"HSP74 Fold Change, LC-MRM",[2]; Table 7,1.45
same,"HSPA5 Fold Change, LC-MRM",[2]; Table 7,2.66
same,"HSP90α Fold Change, LC-MRM",[2]; y3 (Least Interference),2.19
same,"HSP90α Fold Change, LC-MRM",[2]; [7],2.21
same,"HSP90α Fold Change, LC-MRM",[2]; y3-y5 (Selected Transitions),2.21
same,"HSP90α Fold Change, LC-MRM",[2]; [8],2.21
same,"HSP90α expression increase, LC-MRM","[2]; RPMI-8226, 24 hours after treatment, same for y3-y6, y3-y5 or just y3",approximately 2.2 fold
same,"CDC37 Fold Change, DI-MRM",[3]; [9],1.24
same,"HS90A Fold Change, DI-MRM",[3]; [9],1.12
same,"HS90B Fold Change, DI-MRM",[3]; [9],1.23
same,"HSP7C Fold Change, DI-MRM",[3]; [9],0.94
same,"HSP7E Fold Change, DI-MRM",[3]; [9],0.93
same,"HSP71 Fold Change, DI-MRM",[3]; [9],5.50
same,"HSP74 Fold Change, DI-MRM",[3]; [9],1.33
same,"HSPA5 Fold Change, DI-MRM",[3]; [9],0.86
same,"CDC37 Fold Change, DI-MRM",[3]; [10],1.35
same,"HS90A Fold Change, DI-MRM",[3]; [10],1.14
same,"HS90B Fold Change, DI-MRM",[3]; [10],1.23
same,"HSP7C Fold Change, DI-MRM",[3]; [10],1.14
same,"HSP7E Fold Change, DI-MRM",[3]; [10],1.05
same,"HSP71 Fold Change, DI-MRM",[3]; [10],5.51
same,"HSP74 Fold Change, DI-MRM",[3]; [10],1.41
same,"HSPA5 Fold Change, DI-MRM",[3]; [10],0.90
same,"HSP90α Fold Change, DI-MRM",[3]; y3 (Least Interference),0.76
same,"HSP90α Fold Change, DI-MRM",[3]; [7],1.14
same,"HSP90α Fold Change, DI-MRM",[3]; y3-y5 (Selected Transitions),1.13
same,"HSP90α Fold Change, DI-MRM",[3]; [8],1.12
same,"changes in expression of HSP90α, DI-MRM","[3]; 8226/LR5, 24 hours after treatment",1.1 fold
"CC[C@@H](C)Nc1cc(C(=O)N[C@@H]2C[C@H]3CC[C@@H](C2)N3c2ccc(C(=O)C3CC3)cn2)c(C)cc1C(N)=O [XL888, 5-((R)-sec-butylamino)-N1-((1R,3s,5S)-8-(5-(cyclopropanecarbonyl)pyridin-2-yl)-8-azabicyclo[3.2.1]octan-3-yl)-2-methylterephthalamide]",expression of HSP70 isoform 1 (HSP71),[4],robust time-dependent increases
same,inhibiting chymotrypsin like proteasome activity,[5],less effective than the MEK+PI3K inhibitor combination
same,BIM mRNA expression,[6],increase in BIM mRNA
same,Mcl-1 expression at the mRNA level,[6],blocked Mcl-1 expression at the mRNA level
same,BMF mRNA expression,[6]; M229R and 1205LuR,only weakly induced BMF mRNA expression
